Test results: patent publication EP0341300B1, “STIMULATION OF STEM CELL GROWTH BY THE BRYOSTATINS” (priority 1987, dated 1989)
Entries after “also recorded” stand apart in the source; their conditions may differ.

How the values were obtained:
[1] = test system: early BFU-E and late CFU-E human erythroid progenitors; assay: Erythroid progenitor assay, plasma-clot method with erythropoietin; format: cell-based; conditions: plasma clots, optimal erythropoietin
Source text: Amounts of bryostatin which are effective for stimulating hematopoiesis or neutrophil and other immune regulatory cell activation, can be determined using any of the assays known in the art. For example, early and late erythrocyte progenitors can be enumerated using the plasma clot method described in McLeod et al, Blood, Vol. 44, p. 517, 1974. Stimulation of such erythrocyte progenitors requires the presence of erythropoietin.
Assays for both early (BFU-E) and late (CFU-E) progenitors were enumerated as described in McLeod et al, Blood, Vol. 44, p. 517 (1974) using the plasma-clot method and optimal concentrations of erythropoietin. Bryostatin 1 stimulated both early BFU-E and late CFU-E human erythroid progenitors growth in plasma clots. The maximal stimulatory concentration was between 1 and 10 pM, with an inhibitory effect noted at concentrations above 1 nM.

[2] = test system: K562 target cells; assay: Activated neutrophil cytotoxicity, 51Cr release; format: cell-based, human; conditions: for % specific lysis, 7.5 / % specific lysis, column 15 / % specific lysis, column 30: Bryostatin alone (no neutrophils)
Procedure: Alternatively, neutrophil activation can be assayed using a cytoxicity assay. Purified neutrophils can be incubated at a density of about 3x10⁶ cells per ml with various concentrations of bryostatin. The cells can be washed and added to radiolabelled target cells. K562 tumor cells and ⁵¹ Cr-label can be used to measure cytoxicity. The target cells are preincubated with the radiolabelled substance to effect uptake of the radiolabel. The target cells can be mixed with the neutrophils at various effector to target cell ratios, such as between about 50:1 and 5:1, Release of label from the target cells can be measured either by assaying the supernatant or the cells after centrifugation. Of course, other methods known in the art, such as using other assays of immune regulatory cell cytotoxicity can be used. Bryostatin 1 has activity toward neutrophils at about 10⁻¹⁰ to 10⁻⁷M, with a maximum activation effect on neutrophil cytotoxicity of K562 target cells at a concentration of about 10⁻⁷M.
Furthermore, activation of neutrophil cytotoxicity, as measured by killing of ⁵¹Cr-labeled K562 tumor target cells was also sitmulated by bryostatin 1 (Table 1). Neutrophils were purified as described above. Neutrophils were incubated at a density of 3 x 10⁶ cells per ml first with various concentrations of bryostatin 1 (0.1 uM to 0.1 nM), rhGM-CSF (50 ng/ml), or in medium alone for 2 hr. Following two washes, the cells were added to the ⁵¹Cr-labeled K562 target cells at effector/target cell ratios of 30:1, 15:1, or 7.5:1 as indicated. Control plates containing ⁵¹Cr-labeled K562 cells and either bryostatin or medium alone were evaluated to determine the spontaneous release of isotope. The plates containing the cells were centrifuged at 250 x g for 2 min and then incubated for 3 hrs at 37°C. One hundred microliters of the supernatant was harvested from each well, and the amount of radioactivity present was determined in a gamma scintillation counter. The maximum release of ⁵¹Cr was determined by assaying supernatant obtained from wells in which the cells were completely lysed with 6 M HCl.
Assessment of neutrophil cytotoxicity induced by bryostatin 1. K562 cells were labeled with […] and adjusted to a concentration of 10³ cells per ml in RPMI 1640 medium. Activated neutrophil cytotoxicity was determined. The results are expressed as the percentage of specific isotope released at the indicated effector/target cell ratio calculated as follows: % specific lysis = [(mean cpm of sample - mean cpm spontaneously released)/(mean cpm maximal -mean cpm spontaneously released)] x 100 [formula] . [formula] Maximum induced cpm released as 7364 ± 149. The maximum mean % specific lysis from triplicate determinations from a representative experiment is shown.

[3] = test system: multi-potential hematopoietic progenitors; assay: Continuous 7-day subcutaneous infusion by osmotic micropump in mice; format: in vivo, BDF₁ mice
Procedure: A dose-response stimulatory effect on multi-potential hematopoietic progenitors was noted. The administration of 144 ug/kg/d (max. dose) increased CFU-S, CFU-GM and BFU-E compared to control animals infused with vehicle alone. CFU-S from spleen cells of treated animals were increased 2-fold (19 vs. 39 colonies per 10⁶ cells injected), while bone marrow CFU-S was not altered. Likewise, CFU-GM colonies from spleen cells were increased 3.6-fold (52 vs. 188 per 10⁶ cells injected), and increased 2-fold (73 vs. 150 per 10⁵ nuc. cells) in bone marrow.

[4] = test system: Normal human peripheral blood neutrophils; assay: Neutrophil chemiluminescence with luminol; format: cell-based; conditions: 15 min incubation, then 10 uM luminol; rhGM-CSF at 50 ng/ml
Source text: To determine the effective amount of bryostatin for neutrophil activation, normal human peripheral blood neutrophil cells can be purified on a density gradient such as a Ficoll gradient. Other immune regulatory cells, such as T-lymphocytes and macrophages can be isolated by standard and known techniques. The neutrophils can be suspended in Dulbecco's phosphate-buffered saline supplemented with calcium and magnesium. One way to monitor neutrophil activation is to observe chemiluminescence. The neutrophils can be incubated for about fifteen minutes with the bryostatin. Then luminol (5-amino-2-3-dihydro-1, 4-phthalazinedione) can be added to a concentration of about 10 uM. Chemiluminescence can be measured in a luminometer as described in Allen et al, Biochemistry and Biophysics Research Communications, Vol. 69, pp. […], 1976.
Normal human peripheral blood neutrophils were highly purified on a double Ficoll density gradient and suspended in Dulbecco's phosphate-buffered saline supplemented with Ca²⁺ and Mg²⁺. First, substances to be tested were incubated with the neutrophils for 15 min. At this point 10 uM luminol (5-amino-2, 3-dihydro-1, 4-phtyalazinedione) was added to each sample. The generation of chemiluminescence was measured in a luminometer at 1.25 min intervals for up to 20 min.

[5] = test system: normal human bone marrow; assay: Clone transfer assay (growth of transferred clones in secondary plates); format: cell-based; conditions: primary culture 10 nM bryostatin 1 for 4 days; secondary plates bryostatin 1 10 nM or rhGM-CSF 50 ng/ml, 10 further days
Procedure: Assays were performed essentially as described in Metcalf et al, Blood, Vol. 67, pp. 37-45, 1986. Briefly, cultures of normal human bone marrow were initiated in medium containing 10 nM bryostatin 1. Following 4 days of growth, clones of 4-8 cells were carefully removed using a glass pipette to avoid contamination by surrounding cells and transferred to secondary plates containing either rhGM-CSF (50 ng/ml) or bryostatin 1 (10 nM) as the source of CSF). After an additional 10 days of culture, the number of clones that had proliferated to form a colony of 40 cells or more was determined. Further growth was not observed in colonies transferred to plates containing no added CSF. (See Figure 3.)
Each symbol (●) represents a colony. Its height in each column is proportional to the number of cells in that colony. The data directly above sections G of the column represent colonies composed entirely of granulocytic cells. The data above sections GM in the column represent colonies composed of both granulocytic and monocytic cells. No colonies in secondary plates were detected that were composed of macrophage-monocyte cells only. The numerator in the fraction at the top of each column represents the number of colonies that developed in the secondary plate, and the denominator represents the total number of clones transferred.

[6] = test system: light-density, adherence-depleted normal human bone marrow cells; assay: Granulocyte-macrophage colony formation (CFU-GM) in agar culture; format: cell-based
Source text: For determining effective concentrations of bryostatins for granulocyte and macrophage colony formation, light density, adherence-depleted human bone marrow cells can be obtained. The cells can be suspended in a suitable medium, such as supplemented McCoy's 5A medium containing 0.3% agar and plated in 35 mm petri dishes as described in Pike et al, Journal of Cell Physiology, Vol. 76, pp. 77-83, 1970. For the bryostatins which have been tested and found to be effective, i.e., 1, 3, 8 and 9, maximum stimulatory concentrations are between about 10⁻⁷M and 10⁻¹⁰M.
Granulocyte-macrophage colony-forming unit (CFU-GM) colonies were enumerated from light-density, adherence-depleted normal human bone marrow cells. Cells were suspended in supplemented McCoy's 5A medium containing 0.3% agar and plated in 35-mm Petri dishes as described in Pike et al, J. Cell Physiol., Vol. 76, pp. 77-83, 1970. Colonies were enumerated following incubation of bone marrow with cells with rHGM-CSF at 50 ng/ml (Genetics Institute) or bryostatin 1 (●) bryostatin 3(o), bryostatin 8(♢), bryostatin 9(+), or bryostatin 13 (▲) at the concentrations indicated. After 14 days of culture at 37°C in a humidified atmosphere containing 7.5% CO₂, colonies of greater or equal to 50 cells were scored. Representative results from one of several experiments are reported as the mean colony number from quadruplicate samples. SEM is within 10% of the mean number.

[7] = test system: P388 lymphocytic leukemia line; conditions: reported by others (Pettit et al); test system not named; cited from earlier work
[8] = neutrophils plus 10^-7M, 0.1 µM
[9] = neutrophils plus 10^-8M, 0.01 µM
[10] = neutrophils plus 10^-9M, 0.001 µM
[11] = neutrophils plus 10^-10M, 0.0001 µM

Compound: bryostatin 1
- concentrations with an inhibitory effect on erythroid progenitors [1]: above 1 nM
- concentration of maximum activation effect on neutrophil cytotoxicity of K562 target cells [2]: about 10⁻⁷ M
- % specific lysis, 7.5 ([2]; 10^-7M, 0.1 µM): -0.6%
- % specific lysis, column 15 ([2]; 10^-7M, 0.1 µM): 0.3%
- % specific lysis, column 30 ([2]; 10^-7M, 0.1 µM): 1.5%
- % specific lysis, 7.5 ([2]; 10^-8M, 0.01 µM): 0.3%
- % specific lysis, column 15 ([2]; 10^-8M, 0.01 µM): 1.0%
- % specific lysis, column 30 ([2]; 10^-8M, 0.01 µM): 0.9%
- % specific lysis at effector/target ratio 7.5 [2, 8]: 7.8%
- % specific lysis at effector/target ratio 15 [2, 8]: 18.1%
- % specific lysis at effector/target ratio 7.5 [2, 9]: 0%
- % specific lysis at effector/target ratio 15 [2, 9]: 2.4%
- % specific lysis at effector/target ratio 30 [2, 9]: 8.4%
- % specific lysis at effector/target ratio 7.5 [2, 10]: 0%
- % specific lysis at effector/target ratio 15 [2, 10]: 1.8%
- % specific lysis at effector/target ratio 30 [2, 10]: 0.9%
- % specific lysis at effector/target ratio 7.5 [2, 11]: 0.9%
- % specific lysis at effector/target ratio 15 [2, 11]: 1.0%
- % specific lysis at effector/target ratio 30 [2, 11]: -0.8%
- CFU-GM colonies from spleen cells ([3]; 144 ug/kg/d, 7 days): 188 per 10⁶ cells injected
- CFU-GM colonies in bone marrow ([3]; 144 ug/kg/d, 7 days): 150 per 10⁵ nuc. cells
- CFU-S from spleen cells ([3]; 144 ug/kg/d, 7 days): 39 colonies per 10⁶ cells injected
- Erythroid BFU-E colonies from spleen cells ([3]; 144 ug/kg/d, 7 days): 58 per 10⁶ cells
- bone marrow BFU-E progenitors ([3]; 144 ug/kg/d, 7 days): no change
- bone marrow CFU-S ([3]; 144 ug/kg/d, 7 days): not altered
- increase of CFU-GM colonies from spleen cells vs. vehicle control ([3]; 144 ug/kg/d, 7 days): 3.6 fold
- increase of CFU-GM colonies in bone marrow vs. vehicle control ([3]; 144 ug/kg/d, 7 days): 2 fold
- increase of CFU-S from spleen cells vs. vehicle control ([3]; 144 ug/kg/d, 7 days): 2 fold
- increase of erythroid BFU-E colonies from spleen cells vs. vehicle control ([3]; 144 ug/kg/d, 7 days): 2 fold
- differential peripheral white blood cell, hemocrit, bone marrow cellularity or spleen weights ([3]; 7-day infusion): not accompanied by a significant change
- major organ toxic effects ([3]; infused for 7 days, any of the doses employed): no major organ toxic effects
- activation of neutrophil chemiluminescence [4]: potent activator
- growth of transferred clones on secondary plates [5]: produced full-size colonies
- colony morphology ([6]; 7 and 14 days of culture): primarily mixed granulocyte-macrophage and pure granulocyte colonies
- lowest concentration at which colony stimulating activity was observed ([6]; 14 days of culture): 10 pM
- maximal effective concentration for stimulation of CFU-GM ([6]; 14 days of culture, colonies of >= 50 cells scored): 1 to 10 nM

Compound: CCCC(=O)O[C@H]1C[C@H]2C[C@@H](O)CC(=O)O[C@@H]([C@H](C)O)C[C@@H]3C/C(=C\C(=O)OC)C[C@@](O)(O3)C(C)(C)/C=C/[C@H]3C/C(=C\C(=O)OC)C[C@@H](C[C@](O)(O2)C1(C)C)O3 [Bryostatin 13, bryostatin 13]
- antineoplastic activity [7]: retain potent antineoplastic activity
- activation of neutrophil chemiluminescence [4]: not
- granulocyte-macrophage colony stimulating activity (in words) ([6]; 14 days of culture): totally inactive; also recorded: completely inactive

Compound: CCCC(=O)O[C@H]1/C(=C/C(=O)OC)C[C@H]2C[C@H]([C@@H](C)O)OC(=O)C[C@H](O)C[C@@H]3C[C@H](OC(C)=O)C(C)(C)[C@](O)(C[C@@H]4C/C(=C/C(=O)OC)C[C@H](/C=C/C(C)(C)[C@]1(O)O2)O4)O3 [Bryostatin 9, bryostatin 9]
- granulocyte-macrophage colony stimulating activity (in words) ([6]; 14 days of culture): much less potent stimulator; also recorded: weaker stimulator; also recorded: only a weak stimulator

Compound: bryostatin 8
- lowest concentration at which colony stimulating activity was observed ([6]; 14 days of culture): 10 pM

Compound: CCC/C=C/C=C/C(=O)O[C@H]1[C@H]2C=C3C[C@H]([C@@H](C)O)OC(=O)C[C@H](O)C[C@@H]4C[C@H](OC(C)=O)C(C)(C)[C@](O)(C[C@@H]5C/C(=C\C(=O)OC)C[C@H](/C=C/C(C)(C)[C@]1(OC(=O)C2)O3)O5)O4 [Bryostatin 3, bryostatin 3]
- granulocyte-macrophage colony stimulating activity (in words) ([6]; 14 days of culture): clearly less potent than bryostatin 1 or 8
